Reference: patent US20020032154A1, “Interferon-suppressing placental lactogen peptides” (priority 2000, published 2002)

Key:
[1] = system: MHC class I antigens (HLA-A, B, and C); assay: Flow cytometry of constitutive and IFN-gamma-inducible MHC class I antigens in stably transfected HeLa cells; assay type: cell-based, human; settings: HeLa cells stably expressing the peptide
Procedure: (§1) For this reason the function of the cloned cDNA was tested directly using pools of stably transfected HeLa cells. Expression of three families of endogenous IFN-gamma-responsive genes in this reporter cell line was determined by flow cytometry using monoclonal antibodies that recognize MHC class II antigens (HLA-DR, DP, and DQ alpha chains), MHC class I heavy chains (HLA-A, B, and C ), and ICAM-1 antigen.
(§2) The hPL(1-28)-encoding cDNA was subcloned into the mammalian expression vector pSH4-hphm using standard methods. HeLa cells (100 mm dishes) were transfected with […] of HPL(1-28)-pSH4-hph^m DNA or empty vector (negative control) by calcium phosphate-mediated transfection. Stable transfectants were selected with hygromycin at […] for at least 16 days. Flow cytometric analysis was performed on stably transfected pools of cells that were treated in culture with IFN-gamma (0, 20, 66, 200, and 1000 U/ml) for 42 h and suspended for analysis by light trypsinization. […] Antibody binding was detected with FITC-goat anti-mouse antibody (Biomeda), and 20,000 cells were analyzed with a FACScan (Becton-Dickinson).

ICAM-1 antigen = assay: Flow cytometry of ICAM-1 antigen in stably transfected HeLa cells; assay type: cell-based, human; settings: HeLa cells stably expressing the peptide
Procedure: as §1
The hPL(1-28)-encoding cDNA was subcloned into the mammalian expression vector pSH4-hphm using standard methods. HeLa cells (100 mm dishes) were transfected with […] of HPL(1-28)-pSH4-hph^m DNA or empty vector (negative control) by calcium phosphate-mediated transfection. Stable transfectants were selected with hygromycin at […] for at least 16 days. Flow cytometric analysis was performed on stably transfected pools of cells that were treated in culture with IFN-gamma (0, 20, 66, 200, and 1000 U/ml) for 42 h and suspended for analysis by light trypsinization. Cells were stained at 4° C. with 10 µg/ml solutions of mAb CR 3/43 (Dako) specific for MHC class II antigens HLA-DP, HLA-DQ, and HLA-DR, mAb G46-2.6 (Pharmingen) specific for MHC class I antigens HLA-A, HLA-B, and HLA-C heavy chains, mAb HA58 (Pharmingen) specific for ICAM-1 antigen, and either non-immune mouse IgG1 or IgG2a as negative control. Antibody binding was detected with FITC-goat anti-mouse antibody (Biomeda), and 20,000 cells were analyzed with a FACScan (Becton-Dickinson).

[2] = system: MHC class II antigens (HLA-DR, DP, and DQ); assay: Flow cytometry of IFN-gamma-inducible MHC class II antigens in stably transfected HeLa cells; assay type: cell-based, human; settings: HeLa cells stably expressing the peptide; any dose of IFN-gamma up to 1000 U/ml, 42 h; vs vector-transfected control cells
Procedure: as §1, §2

[3] = glucose-dependent manner; cited from earlier work
[4] = intravenous insulin tolerance test; cited from earlier work
insulin receptor = insulin receptor (Homo sapiens, UniProt P06213); settings: isolated cells; cited from earlier work
[5] = system: bovine brain capillary endothelial cell (BBCE); settings: cited from earlier work
[6] = system: peripheral blood T-lymphocyte; settings: in vitro; exogenous full-length hormone; cited from earlier work
hGH receptor = biological target: T1, hGH receptor (Homo sapiens, UniProt P10912); settings: relative to hGH; cited from earlier work
T1 sequence (P10912 19-638): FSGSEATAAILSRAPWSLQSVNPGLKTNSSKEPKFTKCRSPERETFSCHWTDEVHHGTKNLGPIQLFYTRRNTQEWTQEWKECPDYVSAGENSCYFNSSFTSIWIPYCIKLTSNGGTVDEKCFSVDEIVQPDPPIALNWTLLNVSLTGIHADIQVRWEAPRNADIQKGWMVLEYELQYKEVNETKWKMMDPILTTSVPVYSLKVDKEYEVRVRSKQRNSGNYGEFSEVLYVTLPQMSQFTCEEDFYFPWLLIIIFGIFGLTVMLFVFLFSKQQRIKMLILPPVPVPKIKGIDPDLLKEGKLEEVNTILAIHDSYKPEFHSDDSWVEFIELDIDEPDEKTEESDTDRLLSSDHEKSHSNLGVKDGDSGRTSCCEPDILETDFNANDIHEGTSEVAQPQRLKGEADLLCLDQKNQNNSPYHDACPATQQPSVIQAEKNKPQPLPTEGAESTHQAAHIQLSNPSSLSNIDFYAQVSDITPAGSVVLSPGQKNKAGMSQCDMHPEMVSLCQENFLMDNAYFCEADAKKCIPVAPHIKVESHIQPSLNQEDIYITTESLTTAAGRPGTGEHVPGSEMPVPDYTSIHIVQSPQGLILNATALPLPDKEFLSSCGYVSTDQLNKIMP

tonsil B-lymphocyte = settings: in vitro; exogenous full-length hormone; cited from earlier work

VQTVPLSRLFDHAMLQAHRAHQLAIDTY (VQTVPLSRLFKEAMLQAHRAHQLAIDTY; HOMO SAPIENS; hPL(1-28) peptide) [isolated peptide, N-terminal 28 residues of secreted human placental lactogen; tested as product of transfected cDNA]
IFN-gamma-induced high level expression of class I genes ([1]; IFN-gamma treatment 42 h): did not induce high level expression | constitutive expression of MHC class I genes (HLA-A, B, and C antigens) ([1]; absence of IFN-gamma): not reduced | fraction of ICAM-1 high-level positive cells (ICAM-1 antigen; 20 U/ml of IFN-gamma): less | cells expressing ICAM-1 at high level (ICAM-1 antigen; absence of IFN-gamma treatment): More than 50% | fraction of ICAM-1 high-level positive cells (ICAM-1 antigen; higher doses of IFN-gamma (above 20 U/ml)): still lower | levels of HLA-DR, DP, and DQ antigens after IFN-gamma treatment [2]: not increased

hGH(6-13): octapeptide representing residues 6-13 of hGH (LSRLFDNA; UniProt P01241 32-39, looked up, fragment)
insulin secretion [3]: augmented | hypoglycemic activity [4]: hypoglycemic activity | binding of insulin to insulin receptor (insulin receptor): increased

B1: hPRL: Human prolactin (protein, UniProt P01236 29-227, looked up)
Prolactin: LPICPGGAARCQVTLRDLFDRAVVLSHYIHNLSSEMFSEFDKRYTHGRGFITKAINSCHTSSLATPEDKEQAQQMNQKDFLSLIVSILRSWNEPLYHLVTEVRGMQEAPEAILSKAVEIEEQTKRLLEGMELIVSQVHPETKENEIYPVWSGLPSLQMADEESRLSAYYNLLHCLRRDSHKIDNYLKLLKCRIIHNNNC
effect on bFGF-induced BBCE cell proliferation [5]: no significant additive somatotropic effect

B2: hPL: full-length human placental lactogen, mature polypeptide encoded by hPL-3 and hPL-4 genes (protein, UniProt P0DML2 27-217, looked up)
Chorionic somatomammotropin …: VQTVPLSRLFDHAMLQAHRAHQLAIDTYQEFEETYIPKDQKYSFLHDSQTSFCFSDSIPTPSNMEETQQKSNLELLRISLLLIESWLEPVRFLRSMFANNLVYDTSDSDDYHLLKDLEEGIQTLMGRLEDGSRRTGQILKQTYSKFDTNSHNHDALLKNYGLLYCFRKDMDKVETFLRMVQCRSVEGSCGF
peripheral blood T-lymphocyte mitogenic response to phytohemagglutinin [6]: reduced | binding to the hGH receptor, weaker than hGH (hGH receptor): 2300 fold | tonsil B-lymphocyte mitogenic response to lipopolysaccharide (tonsil B-lymphocyte): reduced | effect on bFGF-induced BBCE cell proliferation [5]: no significant additive somatotropic effect
